# Data taken from ChEMBL document CHEMBL1201862, “PubChem BioAssay data set” (2004).
# Calls of active or inactive are those of the source.
# What was measured:
# [1] = molecular target: T1, Apoptotic protease-activating factor 1 (Homo sapiens, UniProt O14727); format: functional
# T1 sequence (O14727 whole entry): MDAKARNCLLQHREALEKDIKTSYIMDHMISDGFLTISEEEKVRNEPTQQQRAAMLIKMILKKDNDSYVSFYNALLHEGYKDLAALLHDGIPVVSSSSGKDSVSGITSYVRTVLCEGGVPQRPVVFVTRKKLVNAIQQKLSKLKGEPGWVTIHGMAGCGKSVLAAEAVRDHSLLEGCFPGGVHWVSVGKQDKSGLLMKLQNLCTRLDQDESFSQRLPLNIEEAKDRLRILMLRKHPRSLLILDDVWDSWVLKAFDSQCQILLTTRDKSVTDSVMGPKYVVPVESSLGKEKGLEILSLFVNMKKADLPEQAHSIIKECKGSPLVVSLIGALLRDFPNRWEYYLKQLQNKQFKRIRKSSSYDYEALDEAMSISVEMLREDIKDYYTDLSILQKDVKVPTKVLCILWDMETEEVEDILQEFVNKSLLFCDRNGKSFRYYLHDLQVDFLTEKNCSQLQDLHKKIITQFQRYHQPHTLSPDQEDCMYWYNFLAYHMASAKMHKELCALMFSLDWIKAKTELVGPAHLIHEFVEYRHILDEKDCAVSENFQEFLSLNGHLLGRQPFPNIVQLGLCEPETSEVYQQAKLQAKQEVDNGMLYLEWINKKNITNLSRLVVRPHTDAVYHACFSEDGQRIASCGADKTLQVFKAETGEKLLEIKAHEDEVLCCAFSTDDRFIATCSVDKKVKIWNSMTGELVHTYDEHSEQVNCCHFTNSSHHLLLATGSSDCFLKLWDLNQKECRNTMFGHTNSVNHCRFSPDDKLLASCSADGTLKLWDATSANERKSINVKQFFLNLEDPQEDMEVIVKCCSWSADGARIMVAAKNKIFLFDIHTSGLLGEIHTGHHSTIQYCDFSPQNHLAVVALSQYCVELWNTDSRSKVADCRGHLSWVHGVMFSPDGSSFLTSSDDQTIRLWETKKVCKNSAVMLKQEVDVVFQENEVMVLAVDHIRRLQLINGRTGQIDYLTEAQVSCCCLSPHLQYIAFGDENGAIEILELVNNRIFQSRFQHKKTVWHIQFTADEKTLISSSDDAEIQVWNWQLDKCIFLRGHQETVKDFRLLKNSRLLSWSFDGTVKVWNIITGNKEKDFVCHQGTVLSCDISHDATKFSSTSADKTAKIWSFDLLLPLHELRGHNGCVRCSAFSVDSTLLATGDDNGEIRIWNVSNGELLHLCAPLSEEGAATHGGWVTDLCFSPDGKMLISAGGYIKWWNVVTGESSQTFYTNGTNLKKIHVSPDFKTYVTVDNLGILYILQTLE
# [2] = molecular target: T2, Calpain-2 catalytic subunit (Sus scrofa, UniProt P43367); experiment: pig calpain II inhibitor potency, dose response, biochemical, fluorogenic peptide substrate (AID 1420); format: functional
# T2 sequence (P43367 whole entry): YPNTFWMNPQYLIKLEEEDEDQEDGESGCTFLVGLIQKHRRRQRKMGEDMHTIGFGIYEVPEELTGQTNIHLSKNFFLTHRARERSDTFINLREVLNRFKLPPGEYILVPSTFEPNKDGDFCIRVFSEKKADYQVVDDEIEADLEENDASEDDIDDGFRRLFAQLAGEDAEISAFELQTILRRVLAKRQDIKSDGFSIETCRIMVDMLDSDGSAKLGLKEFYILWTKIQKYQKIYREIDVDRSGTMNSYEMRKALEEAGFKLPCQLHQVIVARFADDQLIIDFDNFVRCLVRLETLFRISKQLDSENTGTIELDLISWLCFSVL
# [3] = molecular target: T3, Polyadenylate-binding protein 1 (Homo sapiens, UniProt P11940); experiment: PABP1 MLLE–PAM2 interaction inhibitors, dose response, miRNA deadenylation inhibitor project, biochemical, fluorescence polarization, Cy5-PAM2 peptide, secondary (AID 602260); format: functional; settings: read-out: IC50_Mean
# T3 sequence (P11940 whole entry): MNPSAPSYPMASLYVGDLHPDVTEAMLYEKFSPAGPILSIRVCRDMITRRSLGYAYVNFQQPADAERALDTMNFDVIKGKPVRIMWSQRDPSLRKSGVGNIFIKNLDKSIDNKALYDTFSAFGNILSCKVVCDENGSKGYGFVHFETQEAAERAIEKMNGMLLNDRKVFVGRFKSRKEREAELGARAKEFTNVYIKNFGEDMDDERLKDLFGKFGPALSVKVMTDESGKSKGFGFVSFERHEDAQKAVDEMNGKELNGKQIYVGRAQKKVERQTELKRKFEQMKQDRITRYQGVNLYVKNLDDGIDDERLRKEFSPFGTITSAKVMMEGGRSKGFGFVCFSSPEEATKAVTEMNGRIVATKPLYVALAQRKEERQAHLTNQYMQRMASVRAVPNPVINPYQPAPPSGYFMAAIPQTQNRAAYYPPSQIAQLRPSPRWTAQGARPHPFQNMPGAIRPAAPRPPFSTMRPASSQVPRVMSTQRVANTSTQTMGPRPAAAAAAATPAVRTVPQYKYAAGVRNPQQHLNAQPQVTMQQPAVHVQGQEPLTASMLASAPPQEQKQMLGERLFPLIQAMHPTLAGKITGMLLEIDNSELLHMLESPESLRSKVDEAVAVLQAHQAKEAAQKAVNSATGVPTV
# [4] = molecular target: T3, Polyadenylate-binding protein 1; experiment: PABP1 MLLE–PAM2 binding inhibitor potency, dose response, biochemical, fluorescence polarization, FITC-PAM2 peptide (AID 602259); format: functional; settings: read-out: IC50_Mean
# [5] = molecular target: FAD-linked sulfhydryl oxidase ALR (Homo sapiens, UniProt P55789); experiment: inhibitors of human ALR sulfhydryl oxidase, dose response, biochemical, H2O2 detection, luminescence, cherry-pick (AID 493248)
# Sequence of FAD-linked sulfhydryl oxidase ALR (P55789 whole entry, the tested form may be a part): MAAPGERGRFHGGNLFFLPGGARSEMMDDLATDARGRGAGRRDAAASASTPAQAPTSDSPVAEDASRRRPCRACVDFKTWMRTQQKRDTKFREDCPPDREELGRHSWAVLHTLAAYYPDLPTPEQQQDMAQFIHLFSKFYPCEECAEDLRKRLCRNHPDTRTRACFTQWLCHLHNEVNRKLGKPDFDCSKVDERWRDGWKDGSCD
# [6] = molecular target: T4, Oxysterols receptor LXR-beta (Homo sapiens, UniProt P55055); format: functional, cell-based;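 note: agonist activity at LXR measured by a cell-based luminescence readout across a dose range, run as a counterscreen for daf-12 agonists; HEK293 cells with Gal4-LXR fusion and GAL4-driven luciferase reporter; potency for activation of Gal4-LXR reporter so compounds are agonists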
# T4 sequence (P55055 whole entry): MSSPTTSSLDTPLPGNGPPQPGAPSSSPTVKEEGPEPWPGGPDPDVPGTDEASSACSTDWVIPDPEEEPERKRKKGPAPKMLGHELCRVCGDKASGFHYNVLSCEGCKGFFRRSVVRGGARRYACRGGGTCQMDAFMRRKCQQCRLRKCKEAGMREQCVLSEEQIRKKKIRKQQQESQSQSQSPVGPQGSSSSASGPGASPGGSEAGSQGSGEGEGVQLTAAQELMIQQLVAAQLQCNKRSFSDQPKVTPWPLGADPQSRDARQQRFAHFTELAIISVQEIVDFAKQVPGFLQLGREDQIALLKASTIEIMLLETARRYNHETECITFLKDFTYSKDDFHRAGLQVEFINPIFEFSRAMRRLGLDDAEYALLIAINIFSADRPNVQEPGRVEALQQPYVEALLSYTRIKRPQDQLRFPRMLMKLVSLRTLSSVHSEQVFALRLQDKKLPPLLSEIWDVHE
# [7] = molecular target: T5, Ubiquitin-conjugating enzyme E2 N (Homo sapiens, UniProt P61088); format: functional;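 note: Dose-response confirmation in a TR-FRET assay detecting UBC13-driven polyubiquitin chain formation, inhibition measured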
# T5 sequence (P61088 whole entry): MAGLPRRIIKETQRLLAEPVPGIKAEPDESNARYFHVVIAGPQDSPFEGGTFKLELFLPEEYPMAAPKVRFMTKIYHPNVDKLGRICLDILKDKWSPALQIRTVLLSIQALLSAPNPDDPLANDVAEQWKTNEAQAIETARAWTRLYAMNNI
# [8] = inhibitors of HIV Env-driven cell fusion, dose response, cherry-pick (AID 652057); format: functional, cell-based
# [9] = ZM109 Env clade C HIV-1 fusion inhibitors, dose response, HeLa effector, CEM target cells, luciferase, cherry-pick (AID 652058); format: functional, cell-based
# [10] = off-target signal loss in HeLa-CEM21 co-culture – HeLa F-luc CTL cells, cherry-picked, counter-screen for HIV-1 Env fusion inhibitor project, dose response (AID 652040); format: functional, cell-based;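 note: potency for signal decrease marking cytotoxic or nonspecific inhibition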
# [11] = inhibitors of clade B AD8 Env fusion, dose response, cell-based, cherry-pick (AID 652062); format: functional;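 note: luciferase signal from cell-cell fusion driven by HIV-1 clade B AD8 Env; potency is for inhibitors of fusion seen as a drop in luminescence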
# H4 = experiment: Luminescence Cell-Based Dose Response HTS to Identify Activators of 5'UTR Stem-Loop Driven Prion Protein mRNA Translation in H4 Neuroglioblastoma Cells. [Related pubchem assays: 1829 (Project Summary), 1814 (Primary HTS)]; format: functional; settings: Homo sapiens
# [12] = test system: Streptococcus sp. 'group A'; experiment: growth inhibition of control SK(-) GAS strain, dose response, counter-screen for streptokinase expression inhibitor project, luminescence, kanamycin, BacTiterGlo, confirmation (AID 1900); format: functional, organism-based
# Streptokinase A = molecular target: T6, Streptokinase A (Streptococcus pyogenes serotype M1, UniProt P10520); experiment: S. pyogenes streptokinase expression inhibitors, potency, dose response, plasminogen activation absorbance, OD405 (AID 1914); format: functional, Streptococcus pyogenes M1 GAS;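 note: secreted streptokinase activity via plasminogen activation per viability signal from cell pellet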
# T6 sequence (P10520 whole entry): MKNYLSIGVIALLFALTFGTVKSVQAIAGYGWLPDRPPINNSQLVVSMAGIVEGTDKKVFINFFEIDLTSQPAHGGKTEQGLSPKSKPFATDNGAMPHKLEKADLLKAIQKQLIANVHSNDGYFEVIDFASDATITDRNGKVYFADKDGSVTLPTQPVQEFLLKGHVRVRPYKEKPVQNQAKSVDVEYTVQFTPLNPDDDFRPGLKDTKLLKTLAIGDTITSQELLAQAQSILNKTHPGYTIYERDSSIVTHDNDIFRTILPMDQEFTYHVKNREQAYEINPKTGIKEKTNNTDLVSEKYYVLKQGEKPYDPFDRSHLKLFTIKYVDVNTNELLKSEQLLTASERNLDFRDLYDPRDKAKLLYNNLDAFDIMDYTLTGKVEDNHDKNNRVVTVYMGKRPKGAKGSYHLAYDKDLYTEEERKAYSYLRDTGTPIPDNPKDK
# [13] = molecular target: Induced myeloid leukemia cell differentiation protein Mcl-1 (Homo sapiens, UniProt Q07820); format: functional
# Sequence of Induced myeloid leukemia cell differentiation protein Mcl-1 (Q07820 whole entry): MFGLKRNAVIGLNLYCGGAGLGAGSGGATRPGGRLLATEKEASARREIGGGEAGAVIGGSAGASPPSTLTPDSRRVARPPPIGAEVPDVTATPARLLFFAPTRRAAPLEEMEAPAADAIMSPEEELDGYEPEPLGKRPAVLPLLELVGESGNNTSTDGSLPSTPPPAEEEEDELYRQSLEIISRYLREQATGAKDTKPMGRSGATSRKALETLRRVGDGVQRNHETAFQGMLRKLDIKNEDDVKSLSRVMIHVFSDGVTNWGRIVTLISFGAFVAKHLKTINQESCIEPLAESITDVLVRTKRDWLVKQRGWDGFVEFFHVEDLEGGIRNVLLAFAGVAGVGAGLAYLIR
# Streptococcus = experiment: Group A Streptococcus viability loss, dose response, counter-screen for streptokinase expression inhibitor project, luminescence, BacTiterGlo (AID 1915); format: functional, organism-based;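 note: potency for reduction of bacterial viability or growth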
# Fatty acid synthase [14] = molecular target: T7, Fatty acid synthase (Homo sapiens, UniProt P49327); experiment: FAS thioesterase domain inhibitors, dose response, biochemical, endpoint fluorescence intensity, uHTS hits (AID 624327); format: functional;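 note: fluorescence from hydrolysis of an O-methyl fluorescein acyl ester substrate by the enzyme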
# T7 sequence (P49327 whole entry, the tested form may be a part): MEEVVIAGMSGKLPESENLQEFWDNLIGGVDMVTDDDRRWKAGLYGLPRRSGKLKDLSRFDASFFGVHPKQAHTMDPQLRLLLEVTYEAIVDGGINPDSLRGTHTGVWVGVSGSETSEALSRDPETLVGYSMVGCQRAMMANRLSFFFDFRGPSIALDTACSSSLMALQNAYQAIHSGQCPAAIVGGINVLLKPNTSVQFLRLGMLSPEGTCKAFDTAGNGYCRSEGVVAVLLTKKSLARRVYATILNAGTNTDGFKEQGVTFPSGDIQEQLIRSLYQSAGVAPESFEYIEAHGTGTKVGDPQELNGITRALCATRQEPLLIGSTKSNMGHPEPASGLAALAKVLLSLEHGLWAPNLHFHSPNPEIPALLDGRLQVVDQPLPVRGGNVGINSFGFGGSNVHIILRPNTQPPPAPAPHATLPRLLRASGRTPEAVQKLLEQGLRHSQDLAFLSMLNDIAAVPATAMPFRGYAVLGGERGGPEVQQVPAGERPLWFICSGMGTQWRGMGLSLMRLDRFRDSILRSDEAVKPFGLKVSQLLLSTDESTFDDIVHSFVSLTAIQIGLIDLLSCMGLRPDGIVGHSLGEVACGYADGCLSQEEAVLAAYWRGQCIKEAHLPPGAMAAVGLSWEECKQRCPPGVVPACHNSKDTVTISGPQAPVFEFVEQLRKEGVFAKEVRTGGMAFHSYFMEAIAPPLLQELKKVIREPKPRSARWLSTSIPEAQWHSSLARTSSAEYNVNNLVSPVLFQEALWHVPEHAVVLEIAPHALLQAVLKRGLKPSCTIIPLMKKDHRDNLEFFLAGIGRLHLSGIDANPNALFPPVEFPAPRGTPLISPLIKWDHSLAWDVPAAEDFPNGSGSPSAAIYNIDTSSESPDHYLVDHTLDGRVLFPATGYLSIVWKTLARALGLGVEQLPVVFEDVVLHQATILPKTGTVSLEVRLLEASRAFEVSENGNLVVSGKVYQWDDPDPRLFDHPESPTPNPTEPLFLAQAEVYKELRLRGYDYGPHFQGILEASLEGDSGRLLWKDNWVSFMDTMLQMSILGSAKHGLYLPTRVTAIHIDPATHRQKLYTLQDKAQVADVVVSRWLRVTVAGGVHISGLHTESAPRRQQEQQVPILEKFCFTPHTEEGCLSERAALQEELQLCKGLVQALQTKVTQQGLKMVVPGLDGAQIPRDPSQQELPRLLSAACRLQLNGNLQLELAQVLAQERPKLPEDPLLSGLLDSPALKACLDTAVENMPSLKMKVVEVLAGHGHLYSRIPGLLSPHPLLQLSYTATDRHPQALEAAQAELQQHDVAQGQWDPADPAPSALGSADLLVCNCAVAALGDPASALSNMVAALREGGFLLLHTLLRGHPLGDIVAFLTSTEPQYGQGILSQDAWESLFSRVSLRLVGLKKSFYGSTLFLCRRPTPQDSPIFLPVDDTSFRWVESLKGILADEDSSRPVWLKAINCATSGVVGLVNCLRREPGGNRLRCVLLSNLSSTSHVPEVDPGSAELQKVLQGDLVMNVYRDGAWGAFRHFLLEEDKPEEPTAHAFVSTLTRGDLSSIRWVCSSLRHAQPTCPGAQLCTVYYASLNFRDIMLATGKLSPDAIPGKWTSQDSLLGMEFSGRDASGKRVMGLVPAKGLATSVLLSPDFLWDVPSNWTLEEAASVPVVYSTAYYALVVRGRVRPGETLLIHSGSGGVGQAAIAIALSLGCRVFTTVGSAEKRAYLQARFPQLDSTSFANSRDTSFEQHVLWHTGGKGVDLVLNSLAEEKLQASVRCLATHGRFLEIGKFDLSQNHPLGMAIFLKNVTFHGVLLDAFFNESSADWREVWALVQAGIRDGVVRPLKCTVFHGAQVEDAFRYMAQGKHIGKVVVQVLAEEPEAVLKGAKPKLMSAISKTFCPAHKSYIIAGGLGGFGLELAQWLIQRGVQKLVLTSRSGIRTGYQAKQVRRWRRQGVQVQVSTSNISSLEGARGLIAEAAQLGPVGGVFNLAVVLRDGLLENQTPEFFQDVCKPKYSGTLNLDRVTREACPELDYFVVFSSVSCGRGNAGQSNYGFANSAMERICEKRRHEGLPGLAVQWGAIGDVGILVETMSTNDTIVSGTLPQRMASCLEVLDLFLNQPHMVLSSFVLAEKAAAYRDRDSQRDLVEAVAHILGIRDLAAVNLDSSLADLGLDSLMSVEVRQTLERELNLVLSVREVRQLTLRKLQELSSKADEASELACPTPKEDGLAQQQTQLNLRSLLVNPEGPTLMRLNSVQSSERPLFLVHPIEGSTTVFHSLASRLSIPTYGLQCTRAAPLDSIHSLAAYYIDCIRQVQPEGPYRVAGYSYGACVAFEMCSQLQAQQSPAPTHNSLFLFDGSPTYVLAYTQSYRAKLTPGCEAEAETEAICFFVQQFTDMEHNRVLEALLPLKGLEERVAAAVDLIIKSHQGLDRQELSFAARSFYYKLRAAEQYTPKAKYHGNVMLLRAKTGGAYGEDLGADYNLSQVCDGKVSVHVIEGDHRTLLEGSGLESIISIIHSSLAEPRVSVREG
# Fatty acid synthase [15] = molecular target: T7, Fatty acid synthase; experiment: FAS thioesterase domain inhibitors, dose response, biochemical, kinetic fluorescence intensity (AID 624326); format: functional;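 note: rate of fluorescence rise from hydrolysis of a fluorogenic O-methyl fluorescein ester substrate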
# [16] = inhibitors of intracellular T. cruzi replication, confirmation, NIH3T3 host cells, beta-gal luminescence (AID 2044); format: functional, cell-based;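 note: intracellular parasites grown in NIH/3T3 mouse fibroblasts as host cells; luminescent beta-galactosidase reporter signal from transgenic T. cruzi replicating inside host cells; inhibitors lower the luminescence signal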
# [17] = cytotoxicity toward NIH3T3 fibroblasts, dose response, counter-screen, cell-based, ATP luminescence, mouse fibroblasts (AID 2010); format: functional;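 note: cells exposed to compound for about 90 hours before reading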
# Vero = experiment: cells; format: functional; settings: Chlorocebus sabaeus
# [18] = Luminescence Cell-Based Dose Retest to Confirm Inhibitors of Cancer Stem Cells. [Related pubchem assays (depositor defined):AID2717, AID2721]; format: functional; settings: Homo sapiens
smiles,measurement,setting,value
CN(C)S(=O)(=O)c1ccc2oc(SCC(=O)Nc3ccccc3F)nc2c1,IC50,[1],7.98 µM (active)
Fc1ccccc1COc1ccc(Br)cc1CNCc1ccncc1,IC50,[2],> 50 µM (not active)
Nc1nc(-c2cccc(F)c2)cs1,IC50,[3],> 66 µM (inactive)
same,IC50,[4],> 66 µM (inactive)
CN(c1ccccc1)S(=O)(=O)c1cccc(C(=O)NC2CCCCC2)c1,IC50,[3],> 66 µM (inactive)
same,IC50,[4],> 66 µM (inactive)
COc1cccc(NC(=O)NNC(=O)CCc2ccc(O)c(O)c2)c1,AC50,[5],3.12 µM (active)
CCN(CC(=O)Nc1ccccc1OC)C(=O)c1ccccc1Sc1ccccc1C#N,IC50,[1],> 100 µM (inactive)
CCOC(=O)N1CCC(NC(=O)c2cc3ccccn3n2)CC1,EC50,[6],> 67.5 µM (inactive)
C1=C(c2ccco2)N2CCN=C2S1,AC50,[5],2.33 µM (active)
COC(=O)Cc1ccc(O)c(N)c1,AC50,[5],21.6 µM (active)
Cc1cc(NC(=S)N(Cc2ccc(Br)cc2)Cc2ccc(C(=O)O)cc2)ccc1Cl,IC50,[2],4.69 µM (not active)
COc1ccc(C[C@H]2CN3C(=NC[C@H]3Cc3ccccc3)N2CCNC(=O)c2ccc(C)c(Br)c2)cc1,IC50,[7],> 20 µM (inactive)
same,IC50,[1],> 100 µM (inactive)
CCc1nnc(NS(=O)(=O)c2ccc(NC(=S)NC(=O)c3ccc(Br)cc3)cc2)s1,IC50,[2],6.7 µM (active)
COc1cc2c(c(OCC(=O)NC(C)C)c1)C(=O)O[C@@H](C)CCCC(=O)CCCCC2,IC50,[3],> 66 µM (inactive)
same,IC50,[4],63.7 µM (inactive)
same,AC50,[8],4.35 µM (active)
same,AC50,[9],4.75 µM (active)
same,AC50,[10],5.78 µM (active)
same,AC50,[11],11.3 µM (active)
Cc1cc(C(=O)NC2CCCCC2)c(C)n1-c1ccc(F)cc1,EC50,H4,0.455 µM (active)
same,EC50,[6],> 67.5 µM (inactive)
O=C(O)CCc1ccc(-c2ccccc2)n1NC(=O)c1sc2ccccc2c1Cl,AC50,[5],1.72 µM (active)
CCOc1ccc(NC(=S)NC(=O)c2cccnc2)c([N+](=O)[O-])c1,IC50,[3],> 66 µM (inactive)
same,IC50,[4],> 66 µM (inactive)
O=C(Nc1ccc2[nH]c(-c3ccc4[nH]cnc4c3)nc2c1)c1cccs1,EC50,[12],> 150 µM (not active)
same,EC50,Streptokinase A,> 150 µM (not active)
same,IC50,[13],7.21 µM (active)
same,EC50,Streptococcus,48.4 µM (inconclusive)
Cn1c(-c2ccc(F)cc2)cnc1NCc1cccc([N+](=O)[O-])c1,IC50,Fatty acid synthase [14],5.28 µM (active)
same,IC50,Fatty acid synthase [15],9.83 µM (active)
COc1ccc2[nH]c(C(=O)Nc3cccc(C)n3)cc2c1,EC50,[6],> 67.5 µM (inactive)
COCCN(C(=O)CSc1ccc2c(c1)OCCO2)c1c(N)n(CC(C)C)c(=O)[nH]c1=O,IC50,[3],> 66 µM (inactive)
same,IC50,[4],> 66 µM (inactive)
CS(=O)(=O)c1ccc(-c2csc(-c3cccnc3)n2)cc1,IC50,Fatty acid synthase [14],10.3 µM (active)
same,IC50,Fatty acid synthase [15],7.66 µM (active)
Cc1cc(C)nc(-n2nc(C)c(Sc3ccc(F)cc3)c2N)n1,EC50,[12],> 150 µM (not active)
same,EC50,Streptokinase A,> 150 µM (not active)
same,EC50,[16],2.01 µM (active)
same,EC50,[17],> 60 µM (not active)
same,EC50,Streptococcus,> 150 µM (not active)
same,EC50,[6],> 67.5 µM (inactive)
COc1ccc(C2CC(c3cccc(F)c3)=NN2c2ccc(S(N)(=O)=O)cc2)cc1 (stereo not given),CC50,Vero,> 25 µM (active)
O=C(O)c1ccc(C=C(c2nc3ccccc3s2)c2nc3ccccc3s2)cc1,AC50,[18],4.53 µM (active)
same,CC50,Vero,> 25 µM (active)
Cc1cc(C(=O)NC2=NCCS2)cs1,EC50,[6],> 67.5 µM (inactive)
CN(C1CCCCC1)S(=O)(=O)c1ccc(NC(=S)NC(=O)c2cccs2)cc1,IC50,[3],> 66 µM (inactive)
same,IC50,[4],> 66 µM (inactive)
Cc1cc(-c2ccncc2)n2ncc(-c3ccccc3)c2n1,EC50,[6],> 67.6 µM (inactive)
Nc1c(C(=O)Nc2ccc(Br)cc2)sc2nc(N3CCOCC3)c3c(c12)CCCC3,CC50,Vero,> 25 µM (active)
COc1ccc(/C=N/OCC(=O)Nc2ccc3c(c2)OCO3)c(OC)c1,IC50,[2],> 50 µM (not active)
Cc1cc(C(=O)OCC(=O)Nc2cccc([N+](=O)[O-])c2)c(C)o1,IC50,Fatty acid synthase [14],9.82 µM (active)
same,IC50,Fatty acid synthase [15],17.2 µM (active)
Cc1cc(C)n2c(NC3CCCC3)c(-c3cc4ccccc4o3)nc2n1,EC50,[6],> 67.5 µM (inactive)
